{"source": "patent US4063014A", "about": "“4\"-O-sulfonyl erythromycin-9-O-oxime derivatives” (Abbott Laboratories, priority 1975, dated 1977)", "system": "S.aureus (Smith)", "test": "S.aureus (Smith) infection, oral medication", "format": "in vivo", "parameters": "DOSAGE LEVELS 300 / DOSAGE LEVELS 150 / DOSAGE LEVELS 75 / DOSAGE LEVELS 37.5 / DOSAGE LEVELS 18.75: unit not given here", "settings": "for DOSAGE LEVELS 18.75: dosage level 18.75, infection 10-100 LD50, Rt-IP; for DOSAGE LEVELS 37.5: dosage level 37.5, infection 10-100 LD50, Rt-IP; for DOSAGE LEVELS 75: dosage level 75, infection 10-100 LD50, Rt-IP; for DOSAGE LEVELS 150: dosage level 150, infection 10-100 LD50, Rt-IP; for DOSAGE LEVELS 300: dosage level 300, infection 10-100 LD50, Rt-IP"}
{"smiles": "CC[C@H]1OC(=O)[C@H](C)[C@@H](O[C@H]2C[C@@](C)(OC)[C@@H](OS(=O)(=O)CCNS(=O)(=O)c3ccc([N+](=O)[O-])cc3)[C@H](C)O2)[C@H](C)[C@@H](O[C@@H]2O[C@H](C)C[C@H](N(C)C)[C@H]2O)[C@](C)(O)C[C@@H](C)C(=NOC)[C@H](C)[C@@H](O)[C@]1(C)O", "note": "[XVII, 4\"-O-[β-(p-Nitrobenzenesulfonamido)Ethyl]Sulfonyl Erythromycin A-9-O-Methyloxime]", "values": [{"measurement": "DOSAGE LEVELS 18.75", "value": 0}, {"measurement": "DOSAGE LEVELS 37.5", "value": 10}, {"measurement": "DOSAGE LEVELS 75", "value": 10}, {"measurement": "DOSAGE LEVELS 150", "value": 0}, {"measurement": "DOSAGE LEVELS 300", "value": 80}]}
{"smiles": "CC[C@H]1OC(=O)[C@H](C)[C@@H](O[C@H]2C[C@@](C)(OC)[C@@H](OS(=O)(=O)CCNC(=O)CNC(=O)OCc3ccccc3)[C@H](C)O2)[C@H](C)[C@@H](O[C@@H]2O[C@H](C)C[C@H](N(C)C)[C@H]2O)[C@](C)(O)C[C@@H](C)C(=NOC)[C@H](C)[C@@H](O)[C@]1(C)O", "note": "[XII, 4\"-O-[β-(N-Carbobenzyloxyglycyl)Amidoethyl]Sulfonyl Erythromycin A-9-O-Methyloxime]", "values": [{"measurement": "ED50", "setting": "Staphylococcus aureus, infection 10-100 LD50, Rt-IP, read-out: CD50 (the source's name)", "value": "> 300", "unit": "mg/kg"}, {"measurement": "DOSAGE LEVELS 18.75", "value": 20}, {"measurement": "DOSAGE LEVELS 37.5", "value": 0}, {"measurement": "DOSAGE LEVELS 75", "value": 0}, {"measurement": "DOSAGE LEVELS 150", "value": 0}, {"measurement": "DOSAGE LEVELS 300", "value": 30}]}
{"smiles": "CC[C@H]1OC(=O)[C@H](C)[C@@H](O[C@H]2C[C@@](C)(OC)[C@@H](OS(=O)(=O)CCNC(=O)Nc3ccccc3)[C@H](C)O2)[C@H](C)[C@@H](O[C@@H]2O[C@H](C)C[C@H](N(C)C)[C@H]2O)[C@](C)(O)C[C@@H](C)C(=NOC)[C@H](C)[C@@H](O)[C@]1(C)O", "note": "[VI, 4\"-O-[β-(3-Phenylureido)-Ethyl]sulfonyl Erythromycin A-9-O-Methyloxime]", "values": [{"measurement": "DOSAGE LEVELS 18.75", "value": 10}, {"measurement": "DOSAGE LEVELS 37.5", "value": 20}, {"measurement": "DOSAGE LEVELS 75", "value": 20}, {"measurement": "DOSAGE LEVELS 150", "value": 10}, {"measurement": "DOSAGE LEVELS 300", "value": 50}]}
{"smiles": "CC[C@H]1OC(=O)[C@H](C)[C@@H](O[C@H]2C[C@@](C)(OC)[C@@H](OS(=O)(=O)CCNC(=S)Nc3ccccc3)[C@H](C)O2)[C@H](C)[C@@H](O[C@@H]2O[C@H](C)C[C@H](N(C)C)[C@H]2O)[C@](C)(O)C[C@@H](C)C(=NOC)[C@H](C)[C@@H](O)[C@]1(C)O", "note": "[Example V, 4\"-O-[β-(3-Phenylthioureido)-1-Ethyl]sulfonyl Erythromycin-A-9-O-Methyloxime]", "values": [{"measurement": "DOSAGE LEVELS 18.75", "value": 0}, {"measurement": "DOSAGE LEVELS 37.5", "value": 0}, {"measurement": "DOSAGE LEVELS 75", "value": 0}, {"measurement": "DOSAGE LEVELS 150", "value": 20}, {"measurement": "DOSAGE LEVELS 300", "value": 80}]}
{"smiles": "CC[C@H]1OC(=O)[C@H](C)[C@@H](O[C@H]2C[C@@](C)(OC)[C@@H](OS(=O)(=O)CCNC(=O)c3ccc([N+](=O)[O-])cc3)[C@H](C)O2)[C@H](C)[C@@H](O[C@@H]2O[C@H](C)C[C@H](N(C)C)[C@H]2O)[C@](C)(O)C[C@@H](C)C(=NOC)[C@H](C)[C@@H](O)[C@]1(C)O", "note": "[Example XV, 4\"-O-[β-(p-Nitrobenzamido)ethyl]Sulfonyl Erythromycin A-9-O-Methyloxime]", "values": [{"measurement": "DOSAGE LEVELS 18.75", "value": 10}, {"measurement": "DOSAGE LEVELS 37.5", "value": 10}, {"measurement": "DOSAGE LEVELS 75", "value": 0}, {"measurement": "DOSAGE LEVELS 150", "value": 0}, {"measurement": "DOSAGE LEVELS 300", "value": 60}]}
